Assay results from ChEMBL document CHEMBL1201862, “PubChem BioAssay data set” (2004).
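Interpolation was linear, between the two tested concentrations surrounding the appropriate level; five concentrations were tested over 48 hours in 96-well plates. GI50: concentration for 50% inhibition of growth.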 The source made the active and inactive calls. Cut-off read from the data, not from the text of the source: active = GI50 up to about 1.1 µM and inactive = higher.

Key:
Test in all cases: NCI-60 cell line screen, 48 h
SK-MEL-2 = system: SK-MEL-2
ACHN = system: ACHN
DU-145 = system: DU-145
SK-OV-3 = system: SK-OV-3
MDA-MB-231 = system: MDA-MB-231
EKVX = system: EKVX
NCI/ADR-RES = system: NCI/ADR-RES
UACC-62 = system: UACC-62
RXF 393 = system: RXF 393
LOX IMVI = system: LOX IMVI
SF-539 = system: SF-539
BT-549 = system: BT-549
OVCAR-3 = system: OVCAR-3
COLO 205 = system: COLO 205
KM12 = system: KM12
OVCAR-4 = system: OVCAR-4
MDA-MB-435 = system: MDA-MB-435
SNB-19 = system: SNB-19
HOP-62 = system: HOP-62
CAKI-1 = system: CAKI-1

| Structure (SMILES) | GI50 (SK-MEL-2) | GI50 (ACHN) | GI50 (DU-145) | GI50 (SK-OV-3) | GI50 (MDA-MB-231) | GI50 (EKVX) | GI50 (NCI/ADR-RES) | GI50 (UACC-62) | GI50 (RXF 393) | GI50 (LOX IMVI) | GI50 (SF-539) | GI50 (BT-549) | GI50 (OVCAR-3) | GI50 (COLO 205) | GI50 (KM12) | GI50 (OVCAR-4) | GI50 (MDA-MB-435) | GI50 (SNB-19) | GI50 (HOP-62) | GI50 (CAKI-1) |
| --- | --- | --- | --- | --- | --- | --- | --- | --- | --- | --- | --- | --- | --- | --- | --- | --- | --- | --- | --- | --- |
| C=C(C)[C@@H]1CCC2=C[C@H](OC2=O)[C@@]2(C)C[C@@H]2C(=O)/C=C(/C)C(=O)[C@H]1OC(C)=O | 26.3 µM (inactive) | 17.3 µM (inactive) | 5.97 µM (inactive) | > 51.9 µM (inactive) | 36.4 µM (inactive) | 21.2 µM (inactive) | 26.5 µM (inactive) | 24.2 µM (inactive) | 16 µM (inactive) | 7.78 µM (inactive) | 7.13 µM (inactive) | 11.4 µM (inactive) | 14.3 µM (inactive) | 18.3 µM (inactive) | 17.7 µM (inactive) | 13 µM (inactive) | 13.2 µM (inactive) | 29.2 µM (inactive) | 34.6 µM (inactive) | 14.2 µM (inactive) |
| O=C1CCCC2C3CC(CN12)C1CCCCN1C3.[O-][Cl+3]([O-])([O-])O (stereo not given) | > 100 µM (inactive) | > 100 µM (inactive) | > 100 µM (inactive) | > 100 µM (inactive) | > 100 µM (inactive) | > 100 µM (inactive) | > 100 µM (inactive) | > 100 µM (inactive) | > 100 µM (inactive) | > 100 µM (inactive) | > 100 µM (inactive) | > 100 µM (inactive) | > 100 µM (inactive) | > 100 µM (inactive) | > 100 µM (inactive) | > 100 µM (inactive) | > 100 µM (inactive) | > 100 µM (inactive) | > 100 µM (inactive) | > 100 µM (inactive) |
| CC(C)(C)c1cc(C2COC(=O)COCC(=O)OCCOCCOCCO2)cc(C(C)(C)C)c1O (stereo not given) | 32.1 µM (inactive) | 19.6 µM (inactive) | 21 µM (inactive) | 24.9 µM (inactive) | 44.6 µM (inactive) | > 75.7 µM (inactive) | > 100 µM (inactive) | 27.2 µM (inactive) | 20.7 µM (inactive) | 31 µM (inactive) | 45.5 µM (inactive) | > 57.5 µM (inactive) | > 100 µM (inactive) | > 100 µM (inactive) | > 100 µM (inactive) | > 100 µM (inactive) | 20.5 µM (inactive) | > 100 µM (inactive) | 46.7 µM (inactive) | 24.7 µM (inactive) |
| O=Nc1c(-c2c(O)[nH]c3ccccc23)[nH]c2ccccc12 [INDIRUBIN-3-MONOXIME] | 1.91 µM (inactive) | 1.94 µM (inactive) | 2.63 µM (inactive) | 1.56 µM (inactive) | 3.38 µM (inactive) | 1.9 µM (inactive) | 5.77 µM (inactive) | 2.93 µM (inactive) | 1.93 µM (inactive) | 3.86 µM (inactive) | 20 µM (inactive) | 8.11 µM (inactive) | 3.88 µM (inactive) | 12.5 µM (inactive) | 0.0865 µM (active) | 5.08 µM (inactive) | 3.79 µM (inactive) | 25.8 µM (inactive) | 7.23 µM (inactive) | 0.64 µM (active) |
| COc1cccc2c1C(=O)c1c(O)c3c(c(O)c1C2=O)C[C@@](O)(C(C)=O)C[C@@H]3OC1CC(N(C)C)C(O)C(C)O1 (stereo not given in full) | 0.0798 µM (active) | 0.00337 µM (active) | 0.000785 µM (active) | 0.00593 µM (active) | 0.00132 µM (active) | 0.00485 µM (active) | 0.0575 µM (active) | 0.00427 µM (active) | 0.00681 µM (active) | 0.00223 µM (active) | 0.00417 µM (active) | 0.00114 µM (active) | 0.00649 µM (active) | 0.00428 µM (active) | 0.00485 µM (active) | 0.0306 µM (active) | 0.000489 µM (active) | 0.00411 µM (active) | 0.00344 µM (active) | 0.00904 µM (active) |
| C[N+](C)(C)CC1Cc2ccccc2C1=O (stereo not given) | > 9.14 µM (inactive) | > 10 µM (inactive) | > 10 µM (inactive) | > 10 µM (inactive) | > 10 µM (inactive) | > 10 µM (inactive) | > 4.78 µM (inactive) | > 10 µM (inactive) | > 9.31 µM (inactive) | 4.41 µM (inactive) | > 10 µM (inactive) | > 10 µM (inactive) | > 5.81 µM (inactive) | 2.93 µM (inactive) | > 10 µM (inactive) | 2.72 µM (inactive) | > 6.87 µM (inactive) | > 10 µM (inactive) | > 10 µM (inactive) | > 4.8 µM (inactive) |
| OC1(c2ccc(Cl)cc2)c2ccccc2C2=Nc3ccccc3CN21 (stereo not given) | > 51.2 µM (inactive) | 8.59 µM (inactive) | 36.2 µM (inactive) | 38.5 µM (inactive) | 34.6 µM (inactive) | > 45.2 µM (inactive) | 25 µM (inactive) | > 86.9 µM (inactive) | 21 µM (inactive) | 25.6 µM (inactive) | 39.6 µM (inactive) | > 100 µM (inactive) | 2.96 µM (inactive) | > 69.2 µM (inactive) | 28 µM (inactive) | 20.6 µM (inactive) | 79.3 µM (inactive) | 36.1 µM (inactive) | 12.9 µM (inactive) | 58.3 µM (inactive) |
| [O-][S@@+]1c2ccc3ccccc3c2N[C@@H]2[C@H]1[C@H]1C=C[C@@H]2C1 | 37.4 µM (inactive) | > 100 µM (inactive) | 46.9 µM (inactive) | 42.1 µM (inactive) | 32.3 µM (inactive) | > 100 µM (inactive) | 25.8 µM (inactive) | 84.1 µM (inactive) | 19.5 µM (inactive) | 31.6 µM (inactive) | > 100 µM (inactive) | 32.4 µM (inactive) | 11.9 µM (inactive) | 46.6 µM (inactive) | 31.1 µM (inactive) | 23.9 µM (inactive) | 24.9 µM (inactive) | > 100 µM (inactive) | 59.4 µM (inactive) | > 100 µM (inactive) |
| O=c1c2ccccc2sc2nc(CCl)nn12 | 48.4 µM (inactive) | 6.31 µM (inactive) | 7.78 µM (inactive) | 14.8 µM (inactive) | 8.36 µM (inactive) | 16 µM (inactive) | > 100 µM (inactive) | 5.46 µM (inactive) | 6.75 µM (inactive) | > 100 µM (inactive) | 32.4 µM (inactive) | 27 µM (inactive) | > 100 µM (inactive) | 13.1 µM (inactive) | > 100 µM (inactive) | > 100 µM (inactive) | 8.28 µM (inactive) | 77.4 µM (inactive) | > 100 µM (inactive) | 7.82 µM (inactive) |
| c1ccc(/C(=N/Nc2nc3ccccc3s2)C2CCCCC2)nc1 | 15.7 µM (inactive) | 6.58 µM (inactive) | 12.6 µM (inactive) | 4.67 µM (inactive) | 11.3 µM (inactive) | 11.9 µM (inactive) | 2.58 µM (inactive) | 12.8 µM (inactive) | 11.7 µM (inactive) | 13.6 µM (inactive) | 13.8 µM (inactive) | 18.6 µM (inactive) | 2.92 µM (inactive) | 1.57 µM (inactive) | 10 µM (inactive) | 9.79 µM (inactive) | 14.8 µM (inactive) | 13.2 µM (inactive) | 9.46 µM (inactive) | 6.95 µM (inactive) |
| CC1(O)C(=O)OC2CC([C@]3(O)CCC4[C@@H]5C[C@H]6O[C@]67[C@@H](O)C=CC(=O)[C@]7(C)C5CC[C@@]43C)C1(C)C2 (stereo not given in full) | 13.8 µM (inactive) | 18.8 µM (inactive) | 26.5 µM (inactive) | 47.9 µM (inactive) | 16.7 µM (inactive) | 45 µM (inactive) | > 50.9 µM (inactive) | 14.9 µM (inactive) | 3.63 µM (inactive) | 4.54 µM (inactive) | 18.2 µM (inactive) | 6.68 µM (inactive) | 15.8 µM (inactive) | 6.93 µM (inactive) | 27 µM (inactive) | 12.1 µM (inactive) | 15.7 µM (inactive) | 47.2 µM (inactive) | 52.7 µM (inactive) | 11.8 µM (inactive) |
| CCCCCCCCCCCCCCCCCC(=O)Nc1ccn(C2OC(CO)C(O)C2O)c(=O)n1 (stereo not given) | > 100 µM (inactive) | 4.74 µM (inactive) | 10.7 µM (inactive) | 35.1 µM (inactive) | > 100 µM (inactive) | > 100 µM (inactive) | 30.5 µM (inactive) | 40.3 µM (inactive) | 26.8 µM (inactive) | 9.89 µM (inactive) | > 76.6 µM (inactive) | > 54.2 µM (inactive) | 7.93 µM (inactive) | 61.9 µM (inactive) | > 65.9 µM (inactive) | > 100 µM (inactive) | 19.3 µM (inactive) | 19.4 µM (inactive) | 2.8 µM (inactive) | 10.5 µM (inactive) |
| Cc1cc(O)c2cc3c(O)c(O)ccc3cc2c1 | 0.895 µM (active) | 1.77 µM (inactive) | 3.91 µM (inactive) | 0.774 µM (active) | 1.25 µM (inactive) | 2.12 µM (inactive) | 0.438 µM (active) | 1.52 µM (inactive) | 0.713 µM (active) | 1.35 µM (inactive) | 0.822 µM (active) | 0.726 µM (active) | 0.46 µM (active) | 0.351 µM (active) | 0.561 µM (active) | 0.536 µM (active) | 3.63 µM (inactive) | 0.615 µM (active) | 1.29 µM (inactive) | 2.08 µM (inactive) |
| Cc1ccc(Nc2nc(C)c(C(=O)CC(=O)C(=O)Nc3c(C)cccc3C(C)(C)C)s2)cc1 | > 100 µM (inactive) | > 100 µM (inactive) | > 100 µM (inactive) | > 100 µM (inactive) | 42.9 µM (inactive) | > 100 µM (inactive) | > 100 µM (inactive) | > 100 µM (inactive) | > 100 µM (inactive) | > 100 µM (inactive) | > 100 µM (inactive) | > 100 µM (inactive) | > 100 µM (inactive) | > 100 µM (inactive) | > 100 µM (inactive) | > 100 µM (inactive) | > 100 µM (inactive) | > 100 µM (inactive) | 38.5 µM (inactive) | > 100 µM (inactive) |
